The test system of the first assay is schizophrenia.
Experiment: not given
Particulars: phase II trial; altered behavior, delusion, hallucinations, extreme emotions, excited motor activity, incoherent speech; cited from earlier work.
Consider `CC(=O)N(C)C1(c2ccccc2)CCN(CCC[C@]2(c3ccc(Cl)c(Cl)c3)CCCN(C(=O)c3ccccc3)C2)CC1` [SR 142,801, Osanetant], for which the “activity on positive symptoms of schizophrenia” value is reported as “active”.

The same assay, now with this note: phase II trial; depression, anhedonia, social isolation, memory and attention deficits; cited from earlier work.
As for `CC(=O)N(C)C1(c2ccccc2)CCN(CCC[C@]2(c3ccc(Cl)c(Cl)c3)CCCN(C(=O)c3ccccc3)C2)CC1` [SR 142,801, Osanetant], the “activity in the treatment of negative symptoms” value was “inactive”.

The target in another assay is T1, recombinant human NK3 receptor (Homo sapiens, UniProt P29371).
T1 construct: expressed in transfected cells; host or cells: HEK293 cells (transient expression), membranes
T1 sequence (P29371 1-465): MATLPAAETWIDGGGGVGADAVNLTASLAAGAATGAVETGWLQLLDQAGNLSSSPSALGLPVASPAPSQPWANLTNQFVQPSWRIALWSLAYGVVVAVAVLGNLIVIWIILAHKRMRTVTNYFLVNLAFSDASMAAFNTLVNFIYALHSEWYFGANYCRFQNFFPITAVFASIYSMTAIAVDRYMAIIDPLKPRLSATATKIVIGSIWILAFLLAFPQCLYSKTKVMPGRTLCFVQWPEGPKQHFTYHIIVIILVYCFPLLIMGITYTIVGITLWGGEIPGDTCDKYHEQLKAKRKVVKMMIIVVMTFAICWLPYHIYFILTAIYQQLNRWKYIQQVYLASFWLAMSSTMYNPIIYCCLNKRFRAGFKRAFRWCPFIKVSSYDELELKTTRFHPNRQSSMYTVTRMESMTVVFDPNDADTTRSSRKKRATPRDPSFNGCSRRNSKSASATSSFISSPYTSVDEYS
The experiment in a line: [3H]SR142801 competition binding assay. Particulars: [3H]SR142801, membranes from HEK293 cells transiently expressing hNK3; read-out: Data (hNK-3 receptor affinity). On the procedure:
[^3H]SR142801 Competition Binding Assay
hNK3 receptor binding experiment were performed using [^3H]SR142801 (Catalog No. TRK1035, specific activity: 74.0 Ci/mmol, Amersham, GE Healthcare UK limited, Buckinghamshire, UK) and membrane isolated from HEK293 cells transiently expressing recombinant human NK3 receptor. After thawing, the membrane homogenates were centrifuged at 48,000×g for 10 min at 4° C., the pellets were resuspended in the 50 mM Tris-HCl, 4 mM MnCl2, 1 μM phosphoramidon, 0.1% BSA binding buffer at pH 7.4 to a final assay concentration of 5 μg protein/well. For inhibition experiments, membranes were incubated with [^3H]SR142801 at a concentration equal to KD value of radioligand and 10 concentrations of the inhibitory compound (0.0003-10 μM) (in a total reaction volume of 500 μl) for 75 min at room temperature (RT). At the end of the incubation, membranes were filtered onto unitfilter (96-well white microplate with bonded GF/C filter preincubated 1 h in 0.3% PEI+0.3% BSA, Packard BioScience, Meriden, Conn.) with a Filtermate 196 harvester (Packard BioScience) and washed 4 times with ice-cold 50 mM Tris-HCl, pH 7.4 buffer. Nonspecific binding was measured in the presence of 10 μM SB222200 for both radioligands. The radioactivity on the filter was counted (5 min) on a Packard Top-count microplate scintillation counter with quenching correction after addition of 45 μl of microscint 40 (Can berra Packard S. A., Zürich, Switzerland) and shaking for 1 h. Inhibition curves were fitted according to the Hill equation: y=100/(1+(x/IC50)^nH), where nH=slope factor using Excel-fit 4 software (Microsoft). IC50 values were derived from the inhibition curve and the affinity constant (Ki) values were calculated using the Cheng-Prussoff equation Ki=IC50/(1+[L]/KD) where [L] is the concentration of radioligand and KD is its dissociation constant at the receptor, derived from the saturation isotherm. All experiments were performed in duplicate and the mean±standard error (SEM) of the individual Ki values was calculated.
As for `N#Cc1ccccc1N1CCN(C(=O)C2CC(NCc3ccc(F)cc3F)CN2Cc2cccc(F)c2)CC1` (stereo not shown) [Example 54, 2-{4-[4-(2,4-Difluoro-benzylamino)-1-(3-fluoro-benzyl)-pyrrolidine-2-carbonyl]-piperazin-lyl}-benzonitrile], the Ki amounted to 47 nM.
Turning to `COc1cc2c(cc1OC)CN(C(=O)[C@@H]1C[C@H](NCc3ccc(F)cc3F)CN1Cc1ccccc1)CC2` [Example 13, [(2S,4S)-1-Benzyl-4-(2,4-difluoro-benzylamino)-pyrrolidin-2-yl]-(6,7-dimethoxy-3,4-dihydro-1H-isoquinolin-2-yl)-methanone], the Ki came to 39.4 nM.
On the same count and under the same terms, the same measure for `N#Cc1ccccc1N1CCN(C(=O)[C@@H]2C[C@H](NCc3ccc(F)c(Cl)c3)CN2Cc2ccccc2)CC1` [Example 45, 2-{4-[(2S,4S)-1-Benzyl-4-(3-chloro-4-fluoro-benzylamino)-pyrrolidine-2-carbonyl]-piperazin-1-yl}-benzonitrile]: 27.9 nM; for `O=C([C@@H]1C[C@H](NCc2ccc(F)cc2F)CN1Cc1ccccc1)N1CCN(c2ccccc2Cl)CC1` [Example 10, [(2S,4S)-1-Benzyl-4-(2,4-difluoro-benzylamino)-pyrrolidin-2-yl]-[4-(2-chloro-phenyl)-piperazin-1-yl]-methanone]: 56.7 nM; for `N#Cc1ccccc1N1CCN(C(=O)[C@@H]2C[C@H](NCc3ccc(F)cc3F)CN2Cc2ccccc2)CC1` [Example 1, 2-{4-[(2S,4S)-1-Benzyl-4-(2,4-difluoro-benzylamino)-pyrrolidine-2-carbonyl]-piperazin-1-yl}-benzonitrile]: 12.2 nM.
Same read-out and setting: the same measure for `N#Cc1ccccc1N1CCN(C(=O)[C@@H]2C[C@H](NCc3cc(C(F)(F)F)ccc3Cl)CN2Cc2ccccc2)CC1` [Example 38, 2-{4-[(2S,4S)-1-Benzyl-4-(2-chloro-5-trifluoromethyl-benzylamino)-pyrrolidine-2-carbonyl]-piperazin-1-yl}-benzonitrile]: 58 nM; for `N#Cc1ccccc1N1CCN(C(=O)[C@@H]2C[C@H](NCc3cccc(Cl)c3F)CN2Cc2ccccc2)CC1` [Example 49, 2-{4-[(2S,4S)-1-Benzyl-4-(3-chloro-2-fluoro-benzylamino)-pyrrolidine-2-carbonyl]-piperazin-1-yl}-benzonitrile]: 48 nM; for `N#Cc1ccccc1N1CCN(C(=O)[C@@H]2C[C@H](NCc3ccccc3C(F)(F)F)CN2Cc2ccccc2)CC1` [Example 36, 2-{4-[(2S,4S)-1-Benzyl-4-(2-trifluoromethyl-benzylamino)-pyrrolidine-2-carbonyl]-piperazin-1-yl}-benzonitrile]: 94.8 nM.
With `CN(Cc1cc(C(F)(F)F)cc(C(F)(F)F)c1)[C@H]1C[C@@H](C(=O)N2CCN(c3cccc(C(F)(F)F)c3)CC2)N(Cc2cccc(Cl)c2)C1` [Example 68, [(2S,4S)-4-[(3,5-Bis-trifluoromethyl-benzyl)-methyl-amino]-1-(3-chloro-benzyl)-pyrrolidin-2-yl]-[4-(3-trifluoromethyl-phenyl)-piperazin-1-yl]-methanone], the Ki was 41.2 nM.
On to `CN(Cc1cc(C(F)(F)F)cc(C(F)(F)F)c1)[C@H]1C[C@@H](C(=O)N2CCN(c3ccccc3C#N)CC2)N(Cc2ccccc2)C1` [Example 32, 2-(4-{(2S,4S)-1-Benzyl-4-[(3,5-bis-trifluoromethyl-benzyl)-methyl-amino]-pyrrolidine-2-carbonyl}-piperazin-1-yl)-benzonitrile], for which the Ki came to 64.4 nM.
Consider `N#Cc1ccccc1N1CCN(C(=O)[C@@H]2C[C@H](NCc3ccc(Cl)c(Cl)c3)CN2Cc2ccccc2)CC1` [Example 48, 2-{4-[(2S,4S)-1-Benzyl-4-(3,4-dichloro-benzylamino)-pyrrolidine-2-carbonyl]-piperazin-1-yl}-benzonitrile], for which the Ki is 29 nM.
Regarding `O=C([C@@H]1C[C@H](NCc2ccc(F)cc2F)CN1Cc1ccccc1)N1CCN(c2ccc(F)cc2)CC1` [Example 8, [(2S,4S)-1-Benzyl-4-(2,4-difluoro-benzylamino)-pyrrolidin-2-yl]-[4-(4-fluoro-phenyl)-piperazin-1-yl]-methanone], the Ki was 64.8 nM.
Regarding `O=C([C@@H]1C[C@H](NCc2ccc(F)cc2F)CN1Cc1ccccc1)N1CCN(c2cccc(C(F)(F)F)c2)CC1` [Example 5, [(2S,4S)-1-Benzyl-4-(2,4-difluoro-benzylamino)-pyrrolidin-2-yl]-[4-(3-trifluoromethyl-phenyl)-piperazin-1-yl]-methanone], the Ki stood at 37.6 nM.
In the case of `N#Cc1ccccc1N1CCN(C(=O)[C@@H]2C[C@@H](NCc3ccc(F)cc3F)CN2Cc2ccccc2)CC1` [Example 88, 2-{4-[(2S,4R)-1-Benzyl-4-(2,4-difluoro-benzylamino)-pyrrolidine-2-carbonyl]-piperazin-1-yl}-benzonitrile], the Ki amounted to 97 nM.
Still for that read-out and setting: the same measure for `N#Cc1ccccc1N1CCN(C(=O)[C@@H]2C[C@H](NCc3cccc(Cl)c3)CN2Cc2ccccc2)CC1` [Example 40, 2-{4-[(2S,4S)-1-Benzyl-4-(3-chloro-benzylamino)-pyrrolidine-2-carbonyl]-piperazin-1-yl}-benzonitrile]: 71 nM; for `O=C([C@@H]1C[C@H](NCc2ccc(F)cc2F)CN1Cc1ccccc1)N1CCN(c2ccccc2)CC1` [Example 7, [(2S,4S)-1-Benzyl-4-(2,4-difluoro-benzylamino)-pyrrolidin-2-yl]-(4-phenyl-piperazin-1-yl)-methanone]: 63 nM; for `O=C([C@@H]1C[C@@H](NCc2ccc(F)cc2F)CN1Cc1ccccc1)N1CCN(c2cccc(C(F)(F)F)c2)CC1` [Example 87, [(2S,4R)-1-Benzyl-4-(2,4-difluoro-benzylamino)-pyrrolidin-2-yl]-[4-(3-trifluoromethyl-phenyl)-piperazin-1-yl]-methanone]: 52 nM.
As to `CN(Cc1cc(C(F)(F)F)cc(C(F)(F)F)c1)[C@H]1C[C@@H](C(=O)N2CCN(c3cccc(C(F)(F)F)c3)CC2)N(Cc2ccccc2)C1` [Example 62, {(2S,4S)-1-Benzyl-4-[(3,5-bis-trifluoromethyl-benzyl)-methyl-amino]-pyrrolidin-2-yl}-[4-(3-trifluoromethyl-phenyl)-piperazin-1-yl]-methanone], the Ki was 39 nM.
On to `COc1cc(CN[C@H]2C[C@@H](C(=O)N3CCN(c4ccccc4C#N)CC3)N(Cc3ccccc3)C2)cc(OC)c1` [Example 34, 2-{4-[(2S,4S)-1-Benzyl-4-(3,5-dimethoxy-benzylamino)-pyrrolidine-2-carbonyl]-piperazin-1-yl}-benzonitrile], for which the Ki is 44 nM.
Same read-out and setting: the same measure for `COc1ccccc1N1CCN(C(=O)[C@@H]2C[C@H](NCc3ccc(F)cc3F)CN2Cc2ccccc2)CC1` [Example 12, [(2S,4S)-1-Benzyl-4-(2,4-difluoro-benzylamino)-pyrrolidin-2-yl]-[4-(2-methoxy-phenyl)-piperazin-1-yl]-methanone]: 23.5 nM.

The record behind these values is patent publication US7528136B2, “Prolinamide derivatives as NK3 antagonists” (Hoffmann-La Roche Inc., priority 2007, dated 2009).
